Data: patent US20230114728A1 (Venatorx Pharmaceuticals, Inc., priority 2019, published 2023)
Converted amounts (≈) assume the structure as drawn.

Columns and labels:
[1] = tested on: N. gonorrhoeae ATCC 49226; assay: Liquid broth MIC in Fastidious broth; assay type: cell-based; conditions: Neisseria gonorrhoeae, ATCC49226; N. gonorrhoeae strain ATCC 49226; Fastidious broth; read-out: Minimum Inhibitory Concentration, N. gonorrhoeae ATCC 49226
Protocol: (§1) Example V: In Vitro Antibacterial Assays for N. gonorrhoeae Strains
(§2) Additional antibacterial testing of the series was performed in 8 reference strains of N. gonorrhoeae (ATCC 49226, FA1090, WHO G, WHO L, WHO K, H041, WHO Z, and WHO Q). ATCC 49226, FA1090, WHO G, and WHO L produce wild type or wild-type like PBP2. WHO K, H041, WHO Z, and WHO Q produce mosaic PBP2. Liquid broth-based assays were used for antibacterial testing of PBP inhibitors in Neisseria gonorrhoeae. Briefly, cryo-preserved bacterial cultures of clinical strains were streaked for isolation on Chocolate Agar (72 g/L (2×) GC Agar Base (BD #228950) and 2% (2×) Hemoglobin was autoclaved at 121° C. for 20 minutes to sterilize. Once cooled to ˜50° C. the 2× GC Agar Base and 2× Hemoglobin solutions are combined and 1% IsoVitaleX Enrichment (BD #211876) was added to the solution). Strains were incubated at 36° C. and 5% CO2 to allow growth of colonies, 24 hours before inoculum preparation. 2-fold serial dilutions of test compounds were conducted in a 96 well plate with a final volume of 75 μL per well at 2-fold the final desired concentration in Fastidious broth (Remel #R07664). For preparation of assay inoculum, a direct suspension was prepared by aseptically swabbing all colonies from agar plates into culture tubes containing 2 mL of fresh sterile saline. After the dilution plates were set up, direct suspensions were then diluted in a cuvette containing sterile saline and the optical density was measured at 600 nm. Inocula were diluted such that 75 μL of this culture in Fastidious broth results in a starting bacterial concentration of 5×10^5 CFU/mL when added to the dilution plates. The plates were incubated for ˜24 hours at 36° C. and 5% CO2. The MIC was read visually as the lowest concentration well with <10% bacterial growth compared to wells of full growth.

N. gonorrhoeae WHO L = assay: Liquid broth MIC in Fastidious broth; assay type: cell-based; conditions: Neisseria gonorrhoeae; N. gonorrhoeae strain WHO L; Fastidious broth; read-out: Minimum Inhibitory Concentration, N. gonorrhoeae WHO L
Protocol: as §1, §2

N. gonorrhoeae H041 = assay: Liquid broth MIC in Fastidious broth; assay type: cell-based; conditions: Neisseria gonorrhoeae, H041, read-out: Minimum Inhibitory Concentration, N. gonorrhoeae H041
Protocol: as §1, §2

N. gonorrhoeae FA1090 = assay: Liquid broth MIC in Fastidious broth; assay type: cell-based; conditions: Neisseria gonorrhoeae; N. gonorrhoeae strain FA1090; Fastidious broth; read-out: Minimum Inhibitory Concentration, N. gonorrhoeae FA1090
Protocol: as §1, §2

N. gonorrhoeae WHO K = assay: Liquid broth MIC in Fastidious broth; assay type: cell-based; conditions: Neisseria gonorrhoeae, read-out: Minimum Inhibitory Concentration, N. gonorrhoeae WHO K
Protocol: as §1, §2

N. gonorrhoeae WHO G = assay: Liquid broth MIC in Fastidious broth; assay type: cell-based; conditions: Neisseria gonorrhoeae; N. gonorrhoeae strain WHO G; Fastidious broth; read-out: Minimum Inhibitory Concentration, N. gonorrhoeae WHO G
Protocol: as §1, §2

E. coli K12 PBP3 = biological target: T1, E. coli K12 PBP3 (Escherichia coli, UniProt P0AD68); assay: biochemical; assay type: binding
T1 construct: made in house
In short: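 A. baumannii PBP2 (2.5 μM) and PBP3 (0.2 μM) were run in 25 mM Tris pH 8.0 buffer with Tween 20; E. coli PBP3 (1.5 μM) and N. gonorrhoeae PBP2 ([…]) in 50 mM Hepes pH 8.0 buffer.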

T1 sequence (P0AD68 1-577): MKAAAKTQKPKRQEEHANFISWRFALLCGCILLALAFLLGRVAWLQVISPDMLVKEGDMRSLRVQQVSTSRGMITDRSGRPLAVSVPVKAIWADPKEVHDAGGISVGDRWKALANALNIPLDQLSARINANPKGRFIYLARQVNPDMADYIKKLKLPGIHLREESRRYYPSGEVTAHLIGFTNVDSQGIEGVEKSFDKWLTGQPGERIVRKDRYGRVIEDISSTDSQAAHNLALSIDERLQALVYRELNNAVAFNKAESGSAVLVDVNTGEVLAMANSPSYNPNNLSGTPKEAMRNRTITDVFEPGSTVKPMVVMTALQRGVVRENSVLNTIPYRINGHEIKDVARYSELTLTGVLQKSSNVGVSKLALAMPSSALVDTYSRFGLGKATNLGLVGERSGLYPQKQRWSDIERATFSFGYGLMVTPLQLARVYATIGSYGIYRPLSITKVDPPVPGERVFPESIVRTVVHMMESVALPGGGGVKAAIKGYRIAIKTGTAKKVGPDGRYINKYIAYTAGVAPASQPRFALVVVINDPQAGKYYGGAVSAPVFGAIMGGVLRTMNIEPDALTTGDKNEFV

Row | SMILES | MIC [1] [µg/mL] | MIC (N. gonorrhoeae WHO L) [µg/mL] | MIC (N. gonorrhoeae H041) [µg/mL] | MIC (N. gonorrhoeae FA1090) [µg/mL] | MIC (N. gonorrhoeae WHO K) [µg/mL] | MIC (N. gonorrhoeae WHO G) [µg/mL] | EC50 (E. coli K12 PBP3) [µM]
1 | CCN1CCN(C(=O)NC(C(=O)N[C@H]2Cc3cccc(C(=O)O)c3OB2O)c2cc(O)cc(O)c2)C(=O)C1=O (mixture of isomers) [Example 79, (3R)-3-(2-(3,5-dihydroxyphenyl)-2-(4-ethyl-2,3-dioxopiperazine-1-carboxamido)acetamido)-2-hydroxy-3,4-dihydro-2H-benzo[e][1,2]oxaborinine-8-carboxylic acid] | 1 to 2 | 16 to 32 | 16 to 32 | < 0.125 | 16 to 32 | 1 to 2 | 30 to 500
2 | NCCN1CCN(C(=O)N[C@@H](C(=O)N[C@H]2Cc3ccc(F)c(C(=O)O)c3OB2O)c2c(F)cc(O)c(O)c2Cl)C(=O)C1=O (single isomer, unassigned) [Example 26] | > 64 | > 64 | > 64 | 16 to 32 (≈ 25.6 to 51.1 µM) | > 64 | > 64 | < 30
3 | NCCCN1CCN(C(=O)N[C@@H](C(=O)N[C@H]2Cc3ccc(F)c(C(=O)O)c3OB2O)c2c(F)cc(O)c(O)c2Cl)C(=O)C1=O (single isomer, unassigned) [Example 27] | > 64 | > 64 | > 64 | 16 to 32 (≈ 25 to 50 µM) | > 64 | 16 to 32 (≈ 25 to 50 µM) | < 30
4 | NCCCN1CCN(C(=O)N[C@H](C(=O)N[C@H]2Cc3ccc(F)c(C(=O)O)c3OB2O)c2ccc(O)c(O)c2Cl)C(=O)C1=O (single isomer, unassigned) [Example 28] | > 64 | > 64 | > 64 | > 64 | > 64 | > 64 | 30 to 500
5 | O=C(O)c1c(F)ccc2c1OB(O)[C@@H](NC(=O)[C@H](NC(=O)N1CCNC1=O)c1c(F)cc(O)c(O)c1Cl)C2 (single isomer, unassigned) [Example 34] | 16 to 32 (≈ 28.8 to 57.7 µM) | > 64 | > 64 | 4 to 8 (≈ 7.21 to 14.4 µM) | > 64 | 16 to 32 (≈ 28.8 to 57.7 µM) | < 30
6 | CS(=O)(=O)N1CCN(C(=O)N[C@@H](C(=O)N[C@H]2Cc3ccc(F)c(C(=O)O)c3OB2O)c2c(F)cc(O)c(O)c2Cl)C1=O (single isomer, unassigned) [Example 35] | 16 to 32 (≈ 25.3 to 50.6 µM) | > 64 | > 64 | 4 to 8 (≈ 6.32 to 12.6 µM) | > 64 | 16 to 32 (≈ 25.3 to 50.6 µM) | < 30
7 | NCCN1CCN(C(=O)N[C@@H](C(=O)N[C@H]2Cc3ccc(F)c(C(=O)O)c3OB2O)c2c(F)cc(O)c(O)c2F)C(=O)C1=O (single isomer, unassigned) [Example 40] | 16 to 32 (≈ 26.3 to 52.5 µM) | > 64 | > 64 | 4 to 8 (≈ 6.57 to 13.1 µM) | > 64 | 16 to 32 (≈ 26.3 to 52.5 µM) | < 30
8 | NCCCN1CCN(C(=O)N[C@@H](C(=O)N[C@H]2Cc3ccc(F)c(C(=O)O)c3OB2O)c2c(F)cc(O)c(O)c2F)C(=O)C1=O (single isomer, unassigned) [Example 41] | 16 to 32 (≈ 25.7 to 51.3 µM) | > 64 | > 64 | 4 to 8 (≈ 6.42 to 12.8 µM) | > 64 | 16 to 32 (≈ 25.7 to 51.3 µM) | < 30
9 | CCN1CCN(C(=O)N[C@H](C(=O)N[C@H]2Cc3cccc(C(=O)O)c3OB2O)c2cc(O)cc(O)c2)C(=O)C1=O (single isomer, unassigned) [Example 81] | 4 to 8 (≈ 7.4 to 14.8 µM) | 16 to 32 (≈ 29.6 to 59.2 µM) | 16 to 32 (≈ 29.6 to 59.2 µM) | 0.25 to 0.5 (≈ 0.463 to 0.925 µM) | 16 to 32 (≈ 29.6 to 59.2 µM) | 0.25 to 0.5 (≈ 0.463 to 0.925 µM) | > 500
10 | CCN1CCN(C(=O)N[C@@H](C(=O)N[C@H]2Cc3cccc(C(=O)O)c3OB2O)c2cc(O)cc(O)c2)C(=O)C1=O (single isomer, unassigned) [Example 82] | 4 to 8 (≈ 7.4 to 14.8 µM) | 16 to 32 (≈ 29.6 to 59.2 µM) | 4 to 8 (≈ 7.4 to 14.8 µM) | < 0.125 | 4 to 8 (≈ 7.4 to 14.8 µM) | 0.25 to 0.5 (≈ 0.463 to 0.925 µM) | 30 to 500
11 | NCCN1CCN(C(=O)N[C@H](C(=O)N[C@H]2Cc3cccc(C(=O)O)c3OB2O)c2ccc(C(=O)O)cc2)C(=O)C1=O (single isomer, unassigned) [Example 83] | 16 to 32 (≈ 28.2 to 56.4 µM) | > 64 | > 64 | 1 to 2 (≈ 1.76 to 3.53 µM) | > 64 | 4 to 8 (≈ 7.05 to 14.1 µM) | 30 to 500
12 | NCCN1CCN(C(=O)N[C@@H](C(=O)N[C@H]2Cc3cccc(C(=O)O)c3OB2O)c2ccc(C(=O)O)cc2)C(=O)C1=O (single isomer, unassigned) [Example 84] | 4 to 8 (≈ 7.05 to 14.1 µM) | 16 to 32 (≈ 28.2 to 56.4 µM) | > 64 | 1 to 2 (≈ 1.76 to 3.53 µM) | 16 to 32 (≈ 28.2 to 56.4 µM) | 1 to 2 (≈ 1.76 to 3.53 µM) | < 30
13 | NCCN1CCN(C(=O)N[C@H](C(=O)N[C@H]2Cc3cccc(C(=O)O)c3OB2O)c2ccc(O)cc2Cl)C(=O)C1=O (single isomer, unassigned) [Example 85] | > 64 | > 64 | > 64 | 4 to 8 (≈ 6.97 to 13.9 µM) | > 64 | > 64 | 30 to 500
14 | NCCN1CCN(C(=O)N[C@@H](C(=O)N[C@H]2Cc3cccc(C(=O)O)c3OB2O)c2ccc(O)cc2Cl)C(=O)C1=O (single isomer, unassigned) [Example 86] | > 64 | > 64 | > 64 | 1 to 2 (≈ 1.74 to 3.49 µM) | > 64 | 4 to 8 (≈ 6.97 to 13.9 µM) | < 30
15 | NCCN1CCN(C(=O)N[C@H](C(=O)N[C@H]2Cc3cccc(C(=O)O)c3OB2O)c2ccc(O)cc2F)C(=O)C1=O (single isomer, unassigned) [Example 88] | > 64 | > 64 | > 64 | 4 to 8 (≈ 7.18 to 14.4 µM) | > 64 | 16 to 32 (≈ 28.7 to 57.4 µM) | 30 to 500
16 | NCCN1CCN(C(=O)N[C@@H](C(=O)N[C@H]2Cc3cccc(C(=O)O)c3OB2O)c2ccc(O)cc2F)C(=O)C1=O (single isomer, unassigned) [Example 89] | 16 to 32 (≈ 28.7 to 57.4 µM) | > 64 | > 64 | 1 to 2 (≈ 1.79 to 3.59 µM) | > 64 | 4 to 8 (≈ 7.18 to 14.4 µM) | 30 to 500
17 | CCN1CCN(C(=O)N[C@@H](C(=O)N[C@H]2Cc3cccc(C(=O)O)c3OB2O)c2cc(Cl)c(O)cc2Cl)C(=O)C1=O (single isomer, unassigned) [Example 91] | 16 to 32 (≈ 27 to 53.9 µM) | > 64 | 16 to 32 (≈ 27 to 53.9 µM) | 0.25 to 0.5 (≈ 0.421 to 0.843 µM) | 16 to 32 (≈ 27 to 53.9 µM) | 1 to 2 (≈ 1.69 to 3.37 µM) | < 30
18 | CCN1CCN(C(=O)N[C@H](C(=O)N[C@H]2Cc3cccc(C(=O)O)c3OB2O)c2cc(Cl)c(O)cc2Cl)C(=O)C1=O (single isomer, unassigned) [Example 92] | > 64 | > 64 | > 64 | 16 to 32 (≈ 27 to 53.9 µM) | > 64 | > 64 | > 500
19 | CCN1CCN(C(=O)NC(C(=O)N[C@H]2Cc3ccc(S)c(C(=O)O)c3OB2O)c2csc(N)n2)C(=O)C1=O (stereo partly drawn) [Example 54, (3R)-3-(2-(2-aminothiazol-4-yl)-2-(4-ethyl-2,3-dioxopiperazine-1-carboxamido)acetamido)-2-hydroxy-7-mercapto-3,4-dihydro-2H-benzo[e][1,2]oxaborinine-8-carboxylic acid] | – | – | – | – | – | – | 30 to 500
20 | CCN1CCN(C(=O)NC(C(=O)N[C@H]2Cc3ccc(SCc4ccc(O)cc4)c(C(=O)O)c3OB2O)c2csc(N)n2)C(=O)C1=O (stereo partly drawn) [Example 55, (3R)-3-(2-(2-aminothiazol-4-yl)-2-(4-ethyl-2,3-dioxopiperazine-1-carboxamido)acetamido)-2-hydroxy-7-((4-hydroxybenzyl)thio)-3,4-dihydro-2H-benzo[e][1,2]oxaborinine-8-carboxylic acid] | – | – | – | – | – | – | 30 to 500
